Laboratory results reported in patent US10143200B2, “Synergistic compositions for the protection of agrarian crops and the use thereof” (STICHTING I-F PRODUCT COLLABORATION, priority 2012, dated 2018).

Experiments:
wheat plants = test: Phytotoxicity (percentage of leaf necrosis) on wheat plants; type: in vivo, wheat (Salgemma variety); settings: scale 0 (none) to 100
Protocol: Leaves of wheat plants of the Salgemma variety, grown in pots in a conditioned environment kept at 20° C. and 70% of relative humidity (R.H.), were treated by spraying both sides of the leaves with the compounds and the compositions under testing, dispersed in hydroacetonic solutions at 20% by volume of acetone.
At the same time, the phytotoxicity (percentage of leaf necrosis) induced on the wheat plants by the application of the products and compositions was evaluated: in this case, the scale ranged from 0 (no phytotoxicity) to 100 (completely necrotized plant).

Puccinia recondita = test: Fungicidal activity in preventive application (5 days) on wheat; type: in vivo, Puccinia recondita on wheat (Salgemma variety); settings: leaf spray 5 days before inoculation, reduction of affected leaf area vs untreated, scale 0-100
Protocol: Leaves of wheat plants of the […] variety, grown in pots in a conditioned environment kept at 20° C. and 70% of relative humidity (R.H.), were treated by spraying both sides of the leaves with the compounds and the compositions under testing, dispersed in hydroacetonic solutions at 20% by volume of acetone. After remaining 5 days in a conditioned environment, the plants were sprayed on both sides of the leaves with an aqueous suspension of conidia of Puccinia recondita (2 mg of inoculum per 1 ml of solution for infection). After being sprayed, the plants were kept in a humidity-saturated environment at a temperature ranging from 18 to 24° C. for the incubation period of the fungus (1 day). After this period, the plants were put in a greenhouse with R.H. of 70% and at a temperature of 18-24° C. for 14 days. At the end of this period the external symptoms of the pathogen appeared and it was therefore possible to proceed with the visual assessment of the intensity of the infection. The fungicidal activity was expressed as percentage of reduction of affected leaves areas with respect to those of untreated plants used as control: the scale comprised, as extremes, the value 100 (full activity; healthy plant) and the value 0 (no activity; completely infected plant).

Botrytis cinerea (BC) = test: In vitro growth inhibition of spore suspensions (optical density 405 nm, 43 h); type: cell-based; settings: concentration giving 50% growth inhibition; Botrytis cinerea spores, 43 hours at room temperature, average of three replicates
[1] = tested on: Stagonospora nodorum (SN); test: as above; type: cell-based; settings: concentration giving 50% growth inhibition; Stagonospora nodorum spores, 43 hours at room temperature, average of three replicates

| Compound | % Phytotoxicity (wheat plants; Rate 62.5 ppm) [%] | % Phytotoxicity (wheat plants; Rate 125 ppm) [%] | % Activity (Puccinia recondita; Rate 62.5 ppm) [%] | % Activity (Puccinia recondita; Rate 125 ppm) [%] | EC50 against Botrytis cinerea (Botrytis cinerea (BC)) | SN EC50 [1] [ppm] |
| --- | --- | --- | --- | --- | --- | --- |
| CC1CC(C)(C)c2c(F)ccc(NC(=O)c3cn(C)nc3C(F)F)c21 (single isomer, unassigned; (+)) [(+)-(I), 3-difluoromethyl-N-(7-fluoro-1,1,3-trimethyl-4-indanyl)-1-methyl-4-pyrazolecarboxamide] | 0 | 0 | 20 | 45 | n.i. | 72 |
| CC1CC(C)(C)c2c(F)ccc(NC(=O)c3cn(C)nc3C(F)F)c21 (racemic) [Racemic (I), 3-difluoromethyl-N-(7-fluoro-1,1,3-trimethyl-4-indanyl)-1-methyl-4-pyrazolecarboxamide] | 0 | 0 | 96 | 98 | 0.32 ppm | 1.1 |
| CC1CC(C)(C)c2c(F)ccc(NC(=O)c3cn(C)nc3C(F)F)c21 (single isomer, unassigned; (-)) [(−)-(I), 3-difluoromethyl-N-(7-fluoro-1,1,3-trimethyl-4-indanyl)-1-methyl-4-pyrazolecarboxamide] | 0 | 0 | 96 | 100 | 0.17 ppm | 0.42 |
